Measurements: US20090185973A1, “METHODS, COMPOSITIONS, UNIT DOSAGE FORMS, AND KITS FOR PHARMACOLOGIC STRESS TESTING WITH REDUCED SIDE EFFECTS” (ADENOBIO N.V., priority 2008, published 2009)
Where “and” joins values, the source holds several entries; their conditions need not be identical. Equal values may be shown once. Read-outs that look alike come from different tables or passages of the source.

Key:
[1] = tested on: patients suffering from ischemic heart disease; assay: Tolerance: occurrence and severity of adverse events (Example 1); format: in vivo, human
Text: The secondary end-point was patient tolerance to the procedure.
Cumulative results on the severity of the three subjective symptoms of the composite (chest pain, dyspnea, flushing) rated from 0 to 30. Cumulative results on the severity of the three subjective symptoms of the composite (chest pain, dyspnea, flushing) rated from 0 to 30.

coronary patients [2] = assay: Tolerance, severity of main symptoms (Example 3); format: in vivo, human
Text: (§1) Primary efficacy end-points were peak and mean diastolic flow velocities (their measurements reflect coronary blood flow values). The secondary end-point was patient's tolerance to the procedure.

coronary patients [3] = assay: TTDE coronary reserve study, concurrent administration for two minutes (Example 3); format: in vivo, human; details: 31 patients
Text: as §1

patients [4] = assay: Control: two consecutive adenosine infusions, TTDE velocities; format: in vivo, human; details: for MV Min, individual patients / PV Min, individual patients / MV Min, mean / PV Min, mean: at rest; for MV Min, individual patients / PV Min, individual patients / PV Max, individual patients / MV Max, individual patients: ADE1 first, ADE2 second adenosine infusion; for MV Min, mean / PV Min, mean / MV Max, mean / PV Max, mean: mean of 5 patients; for PV Max, individual patients / MV Max, individual patients / MV Max, mean / PV Max, mean: under stress
Text: Abbreviations used in the table are defined below:

patients [5] = format: in vivo, human
patients [6] = assay: Priming dose effect with the sequential administration mode (Example 5); format: in vivo, human; details: N = 10
Text: Again there was no difference between the two methods for both peak and mean velocities.

coronary patients [7] = assay: SPECT imaging study, summed difference scores (Example 2, Phase II); format: in vivo, human; design: key: SDS = SSS − SRS; summed 17-segment scores, each segment 0–4; details: Series I sequential: SC = dipyridamole 40 μg/kg bolus then adenosine 70 μg/kg/min 4 min; Adenoscan 140 μg/kg/min; 10 patients
Text: The study was a mono-center, single-blind, 2-arm, cross-over trial.
Only those patients in whom an ischemic zone was detected were declared eligible for the second test, and were enrolled in the study if other inclusion criteria were satisfied.
SPECT images were acquired as per the standard approach performed the preceding week.
Since thallium is currently deemed the best isotope to test myocardial viability at rest, and sestamibi the best isotope to detect myocardial defects under stress conditions, a dual isotope myocardial scintigraphy technique was used for this study. The isotope was injected after a 3 minute infusion with Adenoscan or after a 2.5 minute infusion with the combination. […]
Randomization of SPECT images, and their analysis by two blinded readers, took place every 10 patients. Anonymous and randomized images were assessed using the standard 17-segment model and the semi-quantitative visual score method on a 5-point scale (from 0 to 4). An additional totally computerized quantitative method was performed using the validated CardioGam software (Segami Corp.). All images were interpreted and quantified automatically by the software calculation package. […]
Summed stress scores (with Adenosine or with Adenosoft) were defined as SSS, summed rest scores (Thallium) as SRS and summed difference scores as SDS=SSS-SRS. […] If >2, images were read again by a third independent expert. […]

patients [8] = details: most frequently reported adverse effects with adenosine; cited from earlier work
[9] = DIP4 (n = 5), dipyridamole 35 μg/kg
[10] = DIP5 (n = 30), dipyridamole 28 μg/kg
[11] = DIP6 (n = 5), dipyridamole 23 μg/kg
[12] = TOTAL (n = 40), all dipyridamole doses
[13] = all 40 patients, ADE 140 μg/kg/min, All SC (DIP 4/5/6)
[14] = adenosine 70 μg/kg/min + dipyridamole 10 μg/kg/min vs adenosine 140 μg/kg/min, 2 min
[15] = Delta = peak-BL, concurrent dipyridamole 10 + adenosine 70 μg/kg/min 2 min vs adenosine alone
[16] = concurrent dipyridamole 10 + adenosine 70 μg/kg/min 2 min vs adenosine alone
[17] = DIP dose 28 μg/kg, ADE 140 μg/kg/min
[18] = DIP dose 35 μg/kg, ADE 140 μg/kg/min, listed as ADE
[19] = DIP dose 40 μg/kg, ADE 140 μg/kg/min, listed as ADE

SMILES: Nc1ncnc2c1ncn2[C@@H]1O[C@H](CO)[C@@H](O)[C@H]1O [adenosine]
- Severity of dyspnea [1, 9]: 1.4 ± 1.95
- Severity of flushing [1, 9]: 2.9 ± 2.88
- Severity of chest pain ([1]; DIP4 (n = 5): SC dipyridamole 35 μg/kg + adenosine 70 μg/kg/min vs adenosine alone 140 μg/kg/min): 1.2 ± 2.68
- Severity of dyspnea [1, 10]: 2.33 ± 2.59
- Severity of flushing [1, 10]: 2.35 ± 2.53
- Severity of chest pain ([1]; DIP5 (n = 30): SC dipyridamole 28 μg/kg + adenosine 70 μg/kg/min vs adenosine alone 140 μg/kg/min): 1.12 ± 1.95
- Severity of dyspnea [1, 11]: 5 ± 3.08
- Severity of flushing [1, 11]: 3.2 ± 3.42
- Severity of chest pain ([1]; DIP6 (n = 5): SC dipyridamole 23 μg/kg + adenosine 70 μg/kg/min vs adenosine alone 140 μg/kg/min): 0 ± 0
- Severity of chest pain [1, 12]: 0.99 ± 1.93
- Severity of dyspnea [1, 12]: 2.55 ± 2.71
- Severity of flushing [1, 12]: 2.52 ± 2.63
- Chest pain, frequency [1, 13]: 22.5%
- Dyspnea, # patients reporting events [1, 13]: 20
- Dyspnea, frequency [1, 13]: 50%
- Flushing, # patients reporting events [1, 13]: 21
- Flushing, frequency [1, 13]: 52.5%
- Chest pain, # patients reporting events ([1]; all 40 patients, ADE adenosine alone 140 μg/kg/min, All SC (DIP 4/5/6) dipyridamole 23, 28 or 35 μg/kg + adenosine 70 μg/kg/min): 9
- Patients who experienced thoracic discomfort (coronary patients [2]; Example 3 series): 4 patients
- Severity of chest pain (coronary patients [2]; [14]): 0.68 ± 1.87
- Severity of dyspnea (coronary patients [2]; [14]): 3.64 ± 3.67
- Severity of flushing (coronary patients [2]; [14]): 4.50 ± 3.15
- Delta mean velocity (coronary patients [3]; [15]): 41.5 ± 15.3
- Delta peak velocity (coronary patients [3]; [15]): 54.4 ± 20.5
- Peak velocity at baseline (coronary patients [3]; at rest): 33.0 ± 12.9
- Mean velocity at baseline (coronary patients [3]; at rest, concurrent dipyridamole 10 μg/kg/min + adenosine 70 μg/kg/min 2 min vs adenosine alone 140 mg/kg/min (so in the source)): 25.2 ± 8.9
- Coronary reserve assessment using mean velocity (coronary patients [3]; [16]): 2.79 ± 0.90
- Coronary reserve assessment using peak velocity (coronary patients [3]; [16]): 2.82 ± 0.96
- Max velocity differential MV (ADE1 − ADE2) (patients [4]; 5 patients): 52.6 (ADE2) = 2.4 cm/sec
- Max velocity differential PV (ADE1 − ADE2) (patients [4]; 5 patients): 70.8 (ADE2) = 4.8 cm/sec
- Difference in velocity measurements between two consecutive infusions (patients [4]; 140 mcg/kg/min, 5 minute interval, p>0.05): no difference was seen
- MV Min, individual patients (patients [4]; listed as ADE1): 20 cm/s and 25 cm/s and 17 cm/s and 22 cm/s and 23 cm/s
- PV Min, individual patients (patients [4]; listed as ADE1): 28 cm/sec and 34 cm/sec and 23 cm/sec and 30 cm/sec (2×)
- MV Min, individual patients (patients [4]; listed as ADE2): 20 cm/s and 23 cm/s and 16 cm/s and 22 cm/s and 21 cm/s
- PV Min, individual patients (patients [4]; listed as ADE2): 25 cm/sec and 31 cm/sec and 22 cm/sec and 29 cm/sec and 26 cm/sec
- MV Min, mean (patients [4]; listed as ADE1): 21.4 cm/s
- PV Min, mean (patients [4]; listed as ADE1): 29 cm/sec
- MV Min, mean (patients [4]; listed as ADE2): 20.4 cm/s
- PV Min, mean (patients [4]; listed as ADE2): 26.6 cm/sec
- PV Max, individual patients (patients [4]; 140 mcg/kg/min, 5 minute interval, listed as ADE1): 70 cm/sec and 68 cm/sec and 65 cm/sec and 102 cm/sec and 73 cm/sec
- PV Max, individual patients (patients [4]; 140 mcg/kg/min, 5 minute interval, listed as ADE2): 62 cm/sec and 60 cm/sec and 66 cm/sec and 103 cm/sec and 63 cm/sec
- MV Max, individual patients (patients [4]; 140 mcg/kg/min, listed as ADE1): 50 cm/s and 49 cm/s and 48 cm/s and 75 cm/s and 53 cm/s
- MV Max, individual patients (patients [4]; 140 mcg/kg/min, listed as ADE2): 48 cm/sec (2×) and 45 cm/sec and 75 cm/sec and 47 cm/sec
- MV Max, mean (patients [4]; listed as ADE1): 55 cm/s
- PV Max, mean (patients [4]; listed as ADE1): 75.6 cm/sec
- MV Max, mean (patients [4]; listed as ADE2): 52.6 cm/s
- PV Max, mean (patients [4]; listed as ADE2): 70.8 cm/sec
- PV Max, individual patient (patients [5]; DIP dose 28 μg/kg bolus alone, ADE 140 μg/kg/min 3 min): 84 cm/sec
- MV Max, individual patient (patients [5]; [17]): 64 cm/s
- MV Min, individual patient (patients [5]; [17]): 20 cm/s
- PV Min, individual patient (patients [5]; [17]): 27 cm/sec
- PV Max, individual patients (patients [5]; DIP dose 35 μg/kg bolus alone, ADE 140 μg/kg/min 3 min, listed as ADE): 88 cm/sec and 84 cm/sec
- MV Max, individual patients (patients [5]; [18]): 71 cm/s and 61 cm/s
- MV Min, individual patients (patients [5]; [18]): 21 cm/s and 23 cm/s
- PV Min, individual patients (patients [5]; [18]): 25 cm/sec and 32 cm/sec
- PV Max, individual patients (patients [5]; DIP dose 40 μg/kg bolus alone, ADE 140 μg/kg/min 3 min, listed as ADE): 92 cm/sec and 112 cm/sec
- PV Min, individual patients (patients [5]; DIP dose 40 μg/kg, ADE 140 μg/kg/min): 33 cm/sec
- MV Max, individual patients (patients [5]; [19]): 67 cm/s and 86 cm/s
- MV Min, individual patients (patients [5]; [19]): 23 cm/s and 25 cm/s
- Return to BL, individual patients (patients [6]; ADE 140 μg/kg/min vs C sequential (Dip 40 μg/kg + Ade 70 μg/kg/min), listed as ADE): 30 seconds (2×) and 60 seconds (3×) and 50 seconds and 35 seconds (2×) and 40 seconds and 28 seconds
- Time to peak, individual patients (patients [6]; ADE 140 μg/kg/min vs C sequential (Dip 40 μg/kg bolus + Ade 70 μg/kg/min over 2 minutes), listed as ADE): 70 seconds and 50 seconds (2×) and 75 seconds and 60 seconds (2×) and 35 seconds and 38 seconds and 90 seconds and 40 seconds
- Return to BL, Mean (patients [6]; sequential administration): 43 s
- Return to BL, Total (patients [6]; sequential administration): 428 s
- Time to peak, Mean (patients [6]; sequential administration): 57 s
- Time to peak, Total (patients [6]; sequential administration): 568 s
- SDS (summed difference scores), individual patients (coronary patients [7]): 5 (5×) and 4 (2×) and 14 and 13 and 7
- Frequency of chest pain or chest discomfort (patients [8]): 40%
- Frequency of gastrointestinal discomfort (patients [8]): 13%
- Frequency of throat or neck or jaw discomfort (patients [8]): 15%
